Test results from US10729817B2, “Medical device and plasticized nylon” (Medtronic Vascular, Inc., priority 2013, dated 2020).

Legend:
[1] = Tensile test of pressed films, ASTM D638, INSTRON; format: physicochemical; details: for Elongation / Tensile Modulus / Tensile Strength / Tensile elastic modulus: 10 wt-% plasticizer in RILSAN Nylon-12 film; for Elongation / Tensile Modulus / Tensile Strength: Nylon-12 unplasticized
Method: (§1) Samples of 5, 10, and 15 wt-% of plasticizer from Example 1 were compounded with Nylon-12 in a Brabender mixer at 210° C. Sheets (30-mils thick) were pressed at 200° C. Tensile specimens were punched and tested on an INSTRON testing machine at a cross-head speed of 2 inches/minute according to ASTM D638 test Method. The flexural properties were tested according to ASTM D790-97B test method. The average tensile and flexural moduli of plasticized Nylon-12 are shown in FIG. 3 and FIG. 4, respectively.
(§2) A sample of 10 wt-% of plasticizer from each of Examples 15-17 was compounded with RILSAN Nylon-12 as described in Example 2. The melting point (mp) and crystallinity was determined by DSC.
(§3) A sample of 10 wt-% of plasticizer from each of Examples 4-5 and 19-20 was compounded with RILSAN Nylon-12 as described in Example 2. The melting point (mp) and crystallinity was determined by DSC.
A sample of 5-10 wt-% in RILSAN Nylon-12 was compounded with 5-10 wt-% plasticizer from Example 8 under similar conditions as in Example 9. Sheets (30-mils thick) were pressed at 200° C. from pellets. Tensile specimens were punched and tested on an INSTRON testing machine at a cross-head speed of 2 inches/minute according to ASTM D638 test Method.

[2] = Thermal properties of plasticized Nylon-12 by DSC; format: physicochemical
[3] = Flexural properties of pressed films, ASTM D790-97B; format: physicochemical; details: for Flexural elastic modulus: 10 wt-% plasticizer in RILSAN Nylon-12 film
Method: as §1

[4] = Thermal properties of plasticized Nylon-12 by DSC; format: physicochemical; details: for Crystallinity / mp: 10 wt-% plasticizer in RILSAN Nylon-12, Nylon-12 unplasticized
Method: as §1, §2, §3

[5] = 5, 10, 15 wt-% plasticizer in Nylon-12
[6] = 5-10 wt-% plasticizer in RILSAN Nylon-12
[7] = 10 wt-% plasticizer in GRILAMID L25 Nylon-12

For CCCCCCCC(=O)NCCN(CCNC(=O)CCCCCCC)C(=O)CCCCCCC [Example 1, N,N′,N″-trioctanoyl diethylenetriamine], the “Tensile modulus of Nylon-12 after adding the plasticizer” value [1, 5] was “decreased”, the ΔHm ([2]; 5% plasticizer in Nylon-12) was 60.2 J/g and the “% Crystallinity” value ([2]; 10% plasticizer in Nylon-12) was 27.8%. For the same compound, the “Tm Melt peak” value ([2]; 10% plasticizer in Nylon-12) was 175.9 °C, the “Tm Melt peak” value ([2]; 15% plasticizer in Nylon-12) was 173.9 °C and the ΔHm ([2]; 15% plasticizer in Nylon-12) was 54.7 J/g. For the same compound, the “Flexural modulus of Nylon-12 after adding the plasticizer” value [3, 5] was “decreased”, the “% Crystallinity” value ([4]; 5% plasticizer in Nylon-12) was 28.8% and the “Tm Melt peak” value ([4]; 5% plasticizer in Nylon-12) was 176.6 °C. The ΔHm ([4]; 10% plasticizer in Nylon-12) was 58.2 J/g and the “% Crystallinity” value ([4]; 15% plasticizer in Nylon-12) was 26.2%.

In the case of CCCCCCC(=O)NCCCN(CCNC(=O)CCCCCC)C(=O)CCCCCC [Example 16, N-(2-aminoethyl)-1,3-propanediamine heptanoic acid triamide], the Elongation ([1]; Table 2) is reported as 258%, the “Tensile Modulus” value ([1]; Table 2) is reported as 83455 psi and the “Tensile Strength” value ([1]; Table 2) is reported as 8637 psi. It also gave a Crystallinity ([4]; Table 2) of 24.6 % by DSC and a mp ([4]; Table 2) of 175.6 °C.

In the case of CCCCCCCCC(=O)NCCN(CCNC(=O)CCCCCCCC)C(=O)CCCCCCCC [Example 5, N,N′,N″-trinonanoyl diethylenetriamine], the Elongation ([1]; Table 3) is reported as 226%, the “Tensile Modulus” value ([1]; Table 3) is reported as 74935 psi and the “Tensile Strength” value ([1]; Table 3) is reported as 7411 psi. It also gave a Crystallinity ([4]; Table 3) of 29.2 % by DSC and a mp ([4]; Table 3) of 176.0 °C.

With CCCCCCCC(=O)NCCN(CCN(CCNC(=O)CCCCCCC)C(=O)CCCCCCC)C(=O)CCCCCCC [Example 18, Triethylenetetramine Octanoic Acid Tetramide] the Elongation ([1]; Table 2) was 238%, the “Tensile Modulus” value ([1]; Table 2) was 95902 psi and the “Tensile Strength” value ([1]; Table 2) was 9079 psi. For the same compound, the Crystallinity ([4]; Table 2) was 26.7 % by DSC and the mp ([4]; Table 2) was 176.2 °C.

For CCCCCCCCCC(=O)NCCN(CCNC(=O)CCCCCCCCC)C(=O)CCCCCCCCC [Example 20, N,N′,N″-tridecanoyl diethylenetriamine], the Elongation ([1]; Table 3) was 251%, the “Tensile Modulus” value ([1]; Table 3) was 83517 psi and the “Tensile Strength” value ([1]; Table 3) was 8034 psi. The Crystallinity ([4]; Table 3) was 31.0 % by DSC and the mp ([4]; Table 3) was 175.9 °C.

In the case of CCCCCCCC(=O)NCCCN(CCNC(=O)CCCCCCC)C(=O)CCCCCCC [Example 17, N-(2-aminoethyl)-1,3-propanediamine octanoic acid triamide], the Elongation ([1]; Table 2) is reported as 263%, the “Tensile Modulus” value ([1]; Table 2) is reported as 81308 psi and the “Tensile Strength” value ([1]; Table 2) is reported as 8871 psi. For the same compound, the Crystallinity ([4]; Table 2) was 25.2 % by DSC and the mp ([4]; Table 2) was 175.5 °C.

Compound CCCCCCCC(=O)NCCN(CCNC(=O)CCCCCCC)C(=O)CCCCCCC [Example 13, N,N′,N″-trioctanoyl diethylenetriamine] has a Tensile elastic modulus [1] of 85644 psi, a Flexural elastic modulus [3] of 71839 psi and a melting point of 97.9 °C.

In the case of CCCCCCCC(=O)NCCN(CCNC(=O)CCCCCCC)C(=O)CCCCCCC [Example 8, N,N′,N″-trioctanoyl diethylenetriamine], the “Tensile modulus versus plasticizer content” value [1, 6] is reported as “decreased with increasing plastic content”, the “Tensile strength versus plasticizer content” value [1, 6] is reported as “did not change” and the “Tensile strength of base resin GRILAMID L25 after adding plasticizer” value [1, 7] is reported as “maintained”. For the same compound, the Tensile elastic modulus ([1]; listed as unpurified material) was 82997 psi, the “Flexural modulus after adding plasticizer” value [3, 7] was “decreased significantly” and the Flexural elastic modulus ([3]; listed as unpurified material) was 72345 psi.

With CCCCCCC(=O)NCCN(CCNC(=O)CCCCCC)C(=O)CCCCCC [Example 4, N,N′,N″-triheptanoyl diethylenetriamine] the Elongation ([1]; Table 3) was 231%, the “Tensile Modulus” value ([1]; Table 3) was 66588 psi and the “Tensile Strength” value ([1]; Table 3) was 7422 psi. For the same compound, the Crystallinity ([4]; Table 3) was 29.8 % by DSC and the mp ([4]; Table 3) was 175.2 °C.
